Results from US10654802B2, “Indoline derivatives and method for using and producing the same” (ARIZONA BOARD OF REGENTS ON BEHALF OF THE UNIVERSITY OF …, priority 2016, dated 2020).

Target: T1, Nox4 (Homo sapiens, UniProt Q9NPH5)
T1 construct: expressed in transfected cells
T1 sequence (Q9NPH5 1-578): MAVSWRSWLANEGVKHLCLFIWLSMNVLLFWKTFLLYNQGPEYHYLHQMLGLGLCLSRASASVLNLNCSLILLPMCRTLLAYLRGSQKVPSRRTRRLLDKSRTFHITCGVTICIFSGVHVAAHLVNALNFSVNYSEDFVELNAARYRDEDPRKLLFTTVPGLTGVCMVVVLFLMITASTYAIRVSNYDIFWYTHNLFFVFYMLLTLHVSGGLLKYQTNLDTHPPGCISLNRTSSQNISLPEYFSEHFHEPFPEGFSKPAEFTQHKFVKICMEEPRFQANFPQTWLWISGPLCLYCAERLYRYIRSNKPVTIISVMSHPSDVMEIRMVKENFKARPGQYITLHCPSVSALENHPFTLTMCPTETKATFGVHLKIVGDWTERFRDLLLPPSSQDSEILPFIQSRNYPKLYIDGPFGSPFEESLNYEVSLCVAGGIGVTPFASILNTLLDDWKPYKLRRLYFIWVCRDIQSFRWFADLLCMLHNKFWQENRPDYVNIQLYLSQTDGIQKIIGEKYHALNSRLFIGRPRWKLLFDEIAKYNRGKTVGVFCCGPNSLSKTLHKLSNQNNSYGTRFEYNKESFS
T1 sequence (P13498 1-195 partner): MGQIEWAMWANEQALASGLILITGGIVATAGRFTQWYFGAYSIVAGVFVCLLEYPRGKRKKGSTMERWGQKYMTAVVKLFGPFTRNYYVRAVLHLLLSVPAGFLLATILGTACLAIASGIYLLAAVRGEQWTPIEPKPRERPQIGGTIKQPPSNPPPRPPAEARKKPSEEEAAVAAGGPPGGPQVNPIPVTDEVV
Assay: Inhibition of Nox4-dependent H2O2 production in HEK/Nox4 cells, Amplex Red assay
Format: cell-based
Conditions: for remaining activity at 1 µM: 1 μM final concentration; for remaining activity at 1 µM / remaining activity at 5 µM / remaining activity at 10 µM: 1 h, HEK/Nox4 cells, DMSO vehicle = 1.000, n = 3-10, read-out: H2O2 production relative to vehicle control, Mean; for remaining activity at 5 µM: 5 μM final concentration; for remaining activity at 10 µM: 10 μM final concentration
Protocol: A high-throughput screening (HTS) assay was established for Nox4 inhibition, utilizing HEK293 cells that stably over-express Nox4 (HEK/Nox4 cells), which generate high levels of H2O2(Cheng G et al, Gene: 2001, p. 131-140). Over 30,000 compounds have been screened and medicinal chemistry efforts have led to the synthesis of numerous analogs and the identification of a chemically distinct series of selective Nox4 inhibitors. […] IC-50 was evaluated for UANox048 (FIG. 1B).
HEK cells stably transfected to overexpress Nox4 were treated with varying concentrations of test compounds, DPI (all-Nox inhibitor positive control), or DMSO (vehicle control) and incubated for 1 h (FIG. 1). (FIG. 1A) H2O2 presence was evaluated by Amplex Red assay. […] Values represent means±SEM; n=4. P values were calculated by student's two-tailed t test. *p<0.05, **p<0.01, *** p<0.001.

| Structure (SMILES) | remaining activity at 1 µM [%] | remaining activity at 5 µM [%] | remaining activity at 10 µM [%] | H2O2 generation by HEK/Nox4 cells (varying concentrations, Amplex Red, FIG. 1A) |
| --- | --- | --- | --- | --- |
| O=C(CNC1CCCCCC1)N1CCc2ccccc21 [UANOX023, 2-(cycloheptylamino)-1-(indolin-1-yl)ethan-1-one] | 98.4 | 108 | 100 |  |
| CCN(CC)S(=O)(=O)N1CCN(CC(=O)N2CCc3ccccc32)CC1 [UANOX025, N,N-diethyl-4-(2-(indolin-1-yl)-2-oxoethyl)piperazine-1-sulfonamide] | 107 | 113 | 112 |  |
| O=C(CN1CCN(S(=O)(=O)N2CCOCC2)CC1)N1CCc2ccccc21 [UANOX026, 1-(indolin-1-yl)-2-(4-(morpholinosulfonyl)piperazin-1-yl)ethan-1-one] | 90.6 | 106 | 101 |  |
| O=C(CN1CCN(S(=O)(=O)N2CCCCC2)CC1)N1CCc2ccccc21 [UANOX027, 1-(indolin-1-yl)-2-(4-(piperidin-1-ylsulfonyl)piperazin-1-yl)ethan-1-one] | 113 | 113 | 112 |  |
| CN(C)S(=O)(=O)N1CCN(CC(=O)N2CCc3ccccc32)CC1 [UANOX028, 4-(2-(indolin-1-yl)-2-oxoethyl)-N,N-dimethylpiperazine-1-sulfonamide] | 108 | 112 | 111 |  |
| CCN(CC)S(=O)(=O)N1CCN(CCC(=O)N2CCc3ccccc32)CC1 [UANOX029, N,N-diethyl-4-(3-(indolin-1-yl)-3-oxopropyl)piperazine-1-sulfonamide] | 112 | 112 | 110 |  |
| O=C(CCN1CCN(S(=O)(=O)N2CCOCC2)CC1)N1CCc2ccccc21 [UANOX030] | 108 | 108 | 104 |  |
| O=C(CCN1CCN(S(=O)(=O)N2CCCCC2)CC1)N1CCc2ccccc21 [UANOX031, 1-(indolin-1-yl)-3-(4-(piperidin-1-ylsulfonyl)piperazin-1-yl)propan-1-one] | 111 | 111 | 99.7 |  |
| CN(C)S(=O)(=O)N1CCN(CCC(=O)N2CCc3ccccc32)CC1 [UANOX032, 4-(3-(indolin-1-yl)-3-oxopropyl)-N,N-dimethylpiperazine-1-sulfonamide] | 112 | 109 | 105 |  |
| CC(CNC(=O)c1csc(-c2ccncc2)n1)N1CCc2ccccc21 (stereo not shown) [UANOX033, N-(2-(indolin-1-yl)propyl)-2-(pyridin-4-yl)thiazole-4-carboxamide] | 100 | 91.2 | 86.7 |  |
| COc1ccc(S(=O)(=O)NCC(C)N2CCc3ccccc32)cc1 (stereo not shown) [UANOX034, N-(2-(indolin-1-yl)propyl)-4-methoxybenzenesulfonamide] | 95.9 | 80.3 | 70.6 | dose-dependent decrease |
| CCN(CC)S(=O)(=O)NCC(C)N1CCc2cc(-c3cccc(OC)c3)ccc21 (stereo not shown) [UANOX036, N-(2-(5-(3-methoxyphenyl)indolin-1-yl)propyl)-N,N-diethyl-1-sulfonamide] | 102 | 83.2 | 74.7 |  |
| CC(CNS(=O)(=O)N1CCN(C)CC1)N1CCc2ccccc21 (stereo not shown) [UANOX037] | 97.2 | 79.3 | 77.3 |  |
| CCN(CC)S(=O)(=O)Nc1ccc(N2CCc3ccccc32)cc1 [UANOX038, N—(N,N-diethylaminosulfonyl)-4-(indolin-1-yl)aniline] | 92.5 | 80 | 63.5 |  |
| CC(CNS(=O)(=O)c1ccc(OC(F)(F)F)cc1)N1CCc2ccccc21 (stereo not shown) [UANOX049, N-(2-(indolin-1-yl)propyl)-4-(trifluoromethoxy)benzenesulfonamide] | 87.1 | 78.4 | 71.4 |  |
| COc1ccc(-c2nc(C(=O)NCC(C)N3CCc4ccccc43)cs2)cc1 (stereo not shown) [UANOX054, N-(2-(indolin-1-yl)propyl)-2-(4-(methoxy)phenyl)thiazole-4-carboxamide] | 90.2 | 87.6 | 82.4 |  |
